For four molecules, plant injury and pest or weed control results are on record in patent US9615577B2, “Herbicidally active cyclic dione compounds, or derivatives therefor, substituted by a phenyl which has an alkynyl-containing substituent” (Syngenta Limited, priority 2012, dated 2017).

What all share (assay type): in vivo
For assay [1], the system named is Glycine max (GLXMA, soybean). The experiment in a line: Test 1B glasshouse assay for herbicidal activity, pre-emergence. To be noted: 480 h, 20 DAA, read-out: percentage phytotoxicity GLXMA. Here is the method:
(§1) Seeds of a variety of monocotyledonous and dicotyledonous test plants are sown in standard soil in pots. The plants are cultivated for one day (for pre-emergence) or for about 12 days (range=10-13 days) (for post-emergence) under controlled conditions in a glasshouse (warm climate species at 24/18° C., cool climate species at 20/16° C., both at day/night; 16 hours light; 65% humidity).
(§2) An “instant formulation”, known as the “IF50”, containing 50 g/liter (i.e. 5% w/v) of the “technical” (i.e. unformulated) active ingredient is prepared by dissolving the active ingredient in a mixture of organic solvents and emulsifier, details of which are provided in the Table below. This IF50 is then mixed with a small, variable amount of acetone to aid dissolution, before addition of a 0.2% v/v aqueous solution of the adjuvant X-77 (which is a mixture of alkyl aryl polyoxyethylene glycols and free fatty acids in isopropanol, CAS Registry number 11097-66-8), as the aqueous diluent, to form an aqueous spray solution which contains a predetermined concentration of the active ingredient (which varies depending on the application rate of the active ingredient to the plants) and 0.2% v/v of the adjuvant X-77. This aqueous spray solution is then sprayed onto the plants, after one day's cultivation (for pre-emergence) or after about 12 days' cultivation (for post-emergence).
(§3) The test plants are then grown on, in a glasshouse (greenhouse) under controlled conditions (at either 24/18° C. or 20/16° C. (day/night) as mentioned above; 16 hours light; 65% humidity) and are watered twice daily. Either 15 days after application of the herbicide (15 DAA) (for post-emergence), or 20 days after application of the herbicide (20 DAA) (for pre-emergence), the test plants are evaluated visually, and an assessed percentage phytotoxicity score is given for each herbicidal application on each plant species (where 100%=total damage to plant; 0%=no damage to plant).
Warm climate crop plants: Glycine max (GLXMA, soybean).

For assay [2], the system named is Alopecurus myosuroides (ALOMY). The description is as above. As to conditions: 480 h, 20 DAA, read-out: percentage phytotoxicity ALOMY. Here is the method:
as §1, §2, §3
(§4) Cool climate (“cool season”) grassy monocotyledonous weeds: Alopecurus myosuroides (ALOMY), Avena fatua (AVEFA), Lolium perenne (LOLPE).

The test system of assay [3] is Avena fatua (AVEFA). The assay is described as above. As to conditions: 480 h, 20 DAA, read-out: percentage phytotoxicity AVEFA. As for the experimental part:
as §1, §2, §3, §4

The subject of assay [4] is Lolium perenne (LOLPE). The description is as above. To be noted: 480 h, 20 DAA, read-out: percentage phytotoxicity LOLPE. As for the experimental part:
as §1, §2, §3, §4

In assay [5] the test system is Digitaria sanguinalis (DIGSA). Described as above. As to conditions: 480 h, 20 DAA, read-out: percentage phytotoxicity DIGSA. In short, it runs like this: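 Seeds sown in standard soil; sprayed after 1 day (pre-emergence) or ~12 days (post-emergence) with active ingredient from a 50 g/liter IF50 formulation diluted in 0.2% v/v X-77 aqueous adjuvant. Glasshouse at 24/18° C. day/night, 16 h light, 65% humidity; visual % phytotoxicity scored 20 DAA (pre) or 15 DAA (post).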

Assay [6] deals with Beta vulgaris (BEAVA, sugar beet). Put plainly: Test 1B glasshouse assay for herbicidal activity, post-emergence. As to conditions: 360 h; for plant injury at 60 g/ha: 60 g/ha application rate; for plant injury at 30 g/ha: 30 g/ha application rate; for plant injury at 125 g/ha: 125 g/ha application rate. As for the experimental part: as §1, §2, §3
(§5) Cool climate crop plants: Triticum aestivum (TRZAW, winter wheat), Brassica napus (BRSNN, rape, also called oilseed rape or rapeseed), Beta vulgaris (BEAVA, sugar beet).

The test system of assay [7] is Brassica napus (BRSNN, rape). The assay is described as above. As to conditions: 360 h; for plant injury at 60 g/ha: 60 g/ha application rate; for plant injury at 30 g/ha: 30 g/ha application rate; for plant injury at 125 g/ha: 125 g/ha application rate. As for the experimental part:
as §1, §2, §3, §5

The test system of assay [8] is Triticum aestivum (TRZAW, winter wheat). The description is as above. To be noted: 360 h; for plant injury at 60 g/ha: 60 g/ha application rate; for plant injury at 30 g/ha: 30 g/ha application rate; for plant injury at 125 g/ha: 125 g/ha application rate. Here is the method:
as §1, §2, §3, §5

For assay [9], the system named is Alopecurus myosuroides (ALOMY). Described as above. As to conditions: 360 h; for pest or weed control at 60 g/ha: 60 g/ha application rate; for pest or weed control at 30 g/ha: 30 g/ha application rate; for pest or weed control at 125 g/ha: 125 g/ha application rate. Here is the method:
as §1, §2, §3, §4

The test system of assay [10] is Avena fatua (AVEFA). Described as above. To be noted: 360 h; for pest or weed control at 60 g/ha: 60 g/ha application rate; for pest or weed control at 30 g/ha: 30 g/ha application rate; for pest or weed control at 125 g/ha: 125 g/ha application rate. As for the experimental part: as §1, §2, §3, §4
For assay [11], the system named is Lolium perenne (LOLPE). The description is as above. To be noted: 360 h; for pest or weed control at 60 g/ha: 60 g/ha application rate; for pest or weed control at 30 g/ha: 30 g/ha application rate; for pest or weed control at 125 g/ha: 125 g/ha application rate. As for the experimental part:
as §1, §2, §3, §4

For assay [12], the system named is Echinochloa crus-galli (ECHCG). The description is as above. To be noted: Echinochloa crus-galli; for pest or weed control at 60 g/ha: 60 g/ha application rate; for pest or weed control at 30 g/ha: 30 g/ha application rate; for pest or weed control at 125 g/ha: 125 g/ha application rate. Here is the method:
as §1, §2, §3
Warm climate (“warm season”) grassy monocotyledonous weeds: Setaria faberi (SETFA), SORVU (Sorghum bicolor (L.) Moench ssp. Bicolor, or Sorghum vulgare Pers.), Digitaria sanguinalis (DIGSA), Echinochloa crus-galli (ECHCG), and Brachiaria plantaginea (BRAPL).
Note: The herbicidal activity data (e.g. post-emergence) shown above in Biological Example 1B for Comparator compounds X-9 and X-10 is thought likely to have been measured some years ago, probably using a variant of the above-described test method. Also, for the post-emergence activity of X-9 and X-10 it is not currently known exactly how many days after application of the herbicide the phytotoxicity on the plants was measured.

The subject of assay [13] is Alopecurus myosuroides (ALOMY). The experiment in a line: Biological Example 2 comparative herbicidal data, post-emergence glasshouse screen. As to conditions: 312 h, read-out: Post-emergence herbicidal activities (percentage phytotoxicity) ALOMY. The method, boiled down:
(§6)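 Plants grown 8 days in a glasshouse (24/16°C day/night, 14 h light, 65% humidity) were sprayed with compound in acetone/water (50:50) containing 0.5% Tween 20. They were kept under the same conditions and watered twice daily. Phytotoxicity was scored visually after 13 days (0 = no damage, 100 = total damage).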

Another assay deals with Setaria faberi (SETFA). Described as above. To be noted: 312 h, read-out: Post-emergence herbicidal activities (percentage phytotoxicity) SETFA. The method, boiled down: as §6

Turning to `CC#Cc1ccc(C2C(=O)C(C)(C)OC(C)(C)C2=O)c(C)c1` [Compound A-1], the plant injury at 500 g/ha in assay [1] stood at 10%. In addition, the pest or weed control at 500 g/ha in assay [2] stood at 70%; in the assay with Avena fatua (AVEFA) [3], 10%; with Lolium perenne (LOLPE) [4], 100%; in assay [5] it was 60%. Moreover, the plant injury at 60 g/ha in assay [6] turned out to be 30%; in assay [7], 70%; in assay [8], 80%. Also, the pest or weed control at 60 g/ha in [9] amounted to 80%; in the assay on Avena fatua (AVEFA) [10] it was 60%; in the assay with Lolium perenne (LOLPE) [11], 80%; in assay [12], 90%. Also, the values for the pest or weed control at 15.625 g/ha (in assay [13] (15.625 g/ha application rate); in the assay with Setaria faberi (SETFA) (15.625 g/ha application rate)) were 10% and 20%, respectively. The pest or weed control at 62.5 g/ha in [13] (62.5 g/ha application rate) was 80%; with Setaria faberi (SETFA) (62.5 g/ha application rate) it was 40%.

Regarding `CC#Cc1cc(C)c(C2C(=O)C3CCC(C3)C2=O)c(C)c1` (stereo not drawn) [Compound A-5], the plant injury at 500 g/ha in assay [1] came to 0%; in assay [6] (500 g/ha application rate), 30%; in assay [7] (500 g/ha application rate), 80%; in assay [8] (500 g/ha application rate), 80%. Besides, the pest or weed control at 500 g/ha in [2] is 80%; in the assay with Avena fatua (AVEFA) [3] it was 40%; in the assay with Lolium perenne (LOLPE) [4], 100%; in assay [5], 100%; in assay [9] (500 g/ha application rate) it was 90%; in the assay with Avena fatua (AVEFA) [10] (500 g/ha application rate), 80%. Further, the pest or weed control at 500 g/ha in the assay on Lolium perenne (LOLPE) [11] (500 g/ha application rate) turned out to be 80%; in [12] (500 g/ha application rate) it was 100%. The figures for the plant injury at 30 g/ha in assay [6], in assay [7] and in assay [8] were 40%, 70% and 30%, respectively. The plant injury at 60 g/ha in [6] came to 40%; in assay [7], 70%; in assay [8] it was 30%. The plant injury at 125 g/ha in assay [6] stood at 30%; in assay [7] it was 80%; in assay [8], 70%. For the same molecule, the pest or weed control at 30 g/ha in assay [9] is 70%; in the assay with Avena fatua (AVEFA) [10], 30%; in the assay on Lolium perenne (LOLPE) [11], 30%; in assay [12], 100%; in assay [13] (30 g/ha application rate), 80%; in the assay with Setaria faberi (SETFA) (30 g/ha application rate) it was 70%. Also, the pest or weed control at 60 g/ha in assay [9] came out at 80%; with Avena fatua (AVEFA) [10] it was 30%; in the assay with Lolium perenne (LOLPE) [11] it was 70%; in assay [12], 100%. Further, the pest or weed control at 125 g/ha stood at 80% in assay [9], 80% with Avena fatua (AVEFA) [10], 80% in the assay on Lolium perenne (LOLPE) [11] and 100% in assay [12]. Further, the pest or weed control at 8 g/ha amounted to 50% in assay [13] (8 g/ha application rate) and 30% with Setaria faberi (SETFA) (8 g/ha application rate).

As for `CC#Cc1cc(Cl)c(C2C(=O)C3CCC(C3)C2=O)c(OCC)c1` (stereo not drawn) [Compound A-16], in [1], the plant injury at 250 g/ha is 20%. Further, the pest or weed control at 250 g/ha turned out to be 50% in assay [2], 40% in the assay with Avena fatua (AVEFA) [3], 70% with Lolium perenne (LOLPE) [4] and 100% in assay [5]. The values for the plant injury at 30 g/ha in assay [6], in [7] and in [8] were 0%, 10% and 10%, respectively. Further, the plant injury at 125 g/ha in [6] came to 0%; in assay [7], 50%; in assay [8] it was 60%. Further, the pest or weed control at 30 g/ha in assay [9] is 20%; with Avena fatua (AVEFA) [10], 0%; in the assay with Lolium perenne (LOLPE) [11], 20%; in [12], 80%. Moreover, the pest or weed control at 125 g/ha was 80% in assay [9], 60% with Avena fatua (AVEFA) [10], 70% in the assay on Lolium perenne (LOLPE) [11] and 100% in assay [12].

`CC#Cc1cc(Cl)c(C2C(=O)C3CCC(C)(C2=O)C3(C)C)c(OC)c1` (stereo not drawn) [Compound A-17]: the plant injury at 250 g/ha in assay [1], in assay [6] (250 g/ha application rate), in [7] (250 g/ha application rate) and in [8] (250 g/ha application rate) was 10% each time. For the same molecule, the pest or weed control at 250 g/ha in assay [2] is 0%; in the assay with Avena fatua (AVEFA) [3] it was 60%; in the assay on Lolium perenne (LOLPE) [4] it was 50%; in [5], 100%; in assay [9] (250 g/ha application rate), 50%; with Avena fatua (AVEFA) [10] (250 g/ha application rate) it was 0%. For the same molecule, the results for the pest or weed control at 250 g/ha (in the assay on Lolium perenne (LOLPE) [11] (250 g/ha application rate); in [12] (250 g/ha application rate)) were 20% and 90%, respectively.
